{"source": "paper PMC5689723", "about": "“Targeting aggressive prostate cancer-associated CD44v6 using phage display selected peptides” (Oncotarget, 2017)", "molecules": {"B1": {"name": "PFT (peptide)", "chain": "Biotin-GSGPFTVSVPFVWNFTAD"}, "B2": {"name": "WAG (peptide)", "chain": "Biotin-GSGWAGPRVSSVYYAGAR"}}, "key": {"recombinant CD44v6-Fc": {"molecular_target": "T1, recombinant CD44v6-Fc (Homo sapiens, UniProt P16070, DEL223-384/DEL429-575)", "T1 construct": "the ECD of CD44 and CD44v6 protein were expressed as Fc-tagged proteins; made in house; host or cells: CHO-K1 cells, purified by protein A chromatography", "T1 sequence (P16070 with tags, fused parts or gaps isoform P16070-7 DEL223-384/DEL429-575 limits assumed)": "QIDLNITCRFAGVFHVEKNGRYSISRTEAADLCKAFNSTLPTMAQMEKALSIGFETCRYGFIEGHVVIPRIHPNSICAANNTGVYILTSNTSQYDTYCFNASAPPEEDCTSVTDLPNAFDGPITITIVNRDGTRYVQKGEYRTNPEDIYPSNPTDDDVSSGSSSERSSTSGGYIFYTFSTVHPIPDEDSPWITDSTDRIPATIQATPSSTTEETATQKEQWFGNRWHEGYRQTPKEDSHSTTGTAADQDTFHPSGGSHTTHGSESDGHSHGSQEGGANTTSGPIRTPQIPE", "test": "Peptide-Protein ELISA, recombinant CD44v6-Fc", "assay_type": "binding", "details": "2 h at RT, 490 nm; for binding to recombinant CD44v6-Fc (in words): biotinylated synthetic peptides, various concentrations, Figure 2C, 2D; for Kd: biotinylated peptide, CD44v6-Fc coated at 1 μg/ml, pH 9.6, 0.5% BSA in PBST, HRP-streptavidin, nonlinear regression, GraphPad Prism 6.0", "from_the_text": "Figure 2 Characterization of peptide binding to recombinant CD44v6 (A) Schematic of recombinant CD44v6-Fc and CD44-Fc expression construct. The number of constant exons (1-5 and 15-17) are marked. (B) SDS-PAGE analysis and immunoblotting of purified CD44v6-Fc and CD44-Fc (M, BioRad precision plus all blue prestained protein standard; lane 1, CD44v6-Fc; lane 2, CD44-Fc). For SDS-PAGE analysis, the purified proteins were detected by coomassie blue staining. For immunoblotting, the mouse anti-human Fc Ab or mouse anti-human v6 region specific mAb VFF18 was used as the primary Ab and HRP conjugated goat anti-mouse Ab was used as the secondary Ab. (C) ELISA analysis of the dose dependent recombinant CD44v6-Fc binding ability of four biotinylated peptides. […] The maximal ELISA absorbance value of PFT binding to CD44v6-Fc was used to normalize the binding signal of individual peptides. The specific binding curve was generated using GraphPad Prism 6.0 software and absolute Kd values were calculated using nonlinear regression. (D) The specificity of PFT binding to recombinant CD44v6-Fc. Different concentrations of PFT and its two scrambled peptide versions were incubated with immobilized CD44v6-Fc or CD44-Fc, respectively for ELISA analyses. The maximal ELISA absorbance value of PFT binding to CD44v6-Fc was used to normalize the binding signal of individual peptides. The specific binding curve was generated using GraphPad Prism 6.0 software.\nAn ELISA was performed to analyze the binding of synthesized biotinylated peptides to recombinant CD44-Fc or CD44v6-Fc. Briefly, 100 μl of recombinant protein at 1 μg/ml in 0.05 M carbonate/bicarbonate coating buffer (pH 9.6) was added to each well of a 96-well microtiter plate and coated for 24 h at 4°C. The plates were blocked with 1% BSA in PBST buffer (0.05% Tween 20 in PBS) and then incubated with 100 μl of peptides or antibodies at various concentrations in 0.5% BSA in PBST for 2 h at RT. After washing extensively for five times with PBST buffer, the plates were incubated with 100 μl of HRP-conjugated streptavidin (1:2000 diluted with 0.5% BSA in PBST buffer) for 1 h at RT. After washing five times with PBST buffer, the Sigma fast O-phenylenediamine dihydrochloride tablets (Sigma-Aldrich, St. Louis, MO) were used as substrates and the absorbance was measured at 490 nm using an endpoint assay on a μQuant Universal Microplate Spectrophotometer (Bio-Tek Instruments, Winooski, VT).\nFor binding analysis, the ECD of CD44 and CD44v6 protein were expressed as Fc-tagged proteins (Figure 2A). Exon numbering was performed according to the study of Screaton et al. The ECD of CD44 was engineered as an N-terminal constant sequence (exons 1–5) followed by a nonvariable stretch at the C-terminus (exons 15–17) (Figure 2A). […]"}, "CD44v6": {"tested_on": "CD44v6", "test": "Immunohistofluorescence, human PCa tissue microarrays", "details": "T3N2M1 (grade III) TMA sample; 50 μM peptide; Figure 10C"}, "Met signaling": {"tested_on": "Met signaling", "details": "v6 peptide derivative; ref [36]; cited from earlier work"}, "[1]": {"tested_on": "v6 region peptide (KEQWFGNRWHEGYR) of CD44v6", "test": "Peptide-Peptide ELISA, v6 region peptide", "assay_type": "binding, human", "details": "biotinylated peptides 10 μM, v6 and control peptides 2 μM on streptavidin plate; 25 mM Tris pH 7.2, 150 mM NaCl, 0.1% BSA, 0.05% Tween-20; 2 h at RT; 490 nm; Figure 1D"}, "SORE6-GFP^- cells": {"tested_on": "SORE6-GFP^- cells", "set-up": "method as in PMID 22439924", "details": "treatment with doxorubicin; proportion of SORE6-GFP^+ cells increased dramatically; ref [41]; cited from earlier work"}, "PC3M cells": {"tested_on": "PC3M cells", "test": "MTT assay, PC3M cells", "assay_type": "cell-based", "details": "Homo sapiens, PC-3M, 48 h, 5000 cells per well, triplicate, 562 nm, P< 0.05 vs v6A3, read-out: DOX IC50 of PC3M", "method": "To determine the dose response of drug-resistant PC3M1G4 cell lines, PC3M and v6A3 cells were seeded in triplicate in 96-well plates at 5000 cells per well and incubated for 24 h. A range of concentrations (1000, 100, 10, 1, 0.1, 0.01, 0.001, 0.0001 nM) of DOX in fresh medium were added to the cells. Control cells were treated with appropriate volumes of fresh medium. After 48 h, 20 μl of MTT (3-(4,5-dimethylthiazol-2-yl)-2,5-diphenyltetrazolium bromide) (5 mg/ ml) (Sigma-Aldrich, St. Louis, MO) was added to each well, followed by incubation at 37°C in 5% CO2 for 4 h. Subsequently, 100 μl of DMSO (Sigma-Aldrich, St. Louis, MO) was added and the plate was shaken for 20 min at RT to dissolve the formazan crystals. The optical density (absorbance units) was read at a wavelength of 562 nm on a μQuant Universal Microplate Spectrophotometer (Bio-Tek Instruments, Winooski, VT). The growth inhibition curve was generated using GraphPad Prism 6.0 software (GraphPad Software Inc., San Diego, CA). Absolute IC50 values were calculated using the log inhibitor vs. response curves for nonlinear regression."}, "VFF18": {"tested_on": "VFF18", "details": "amino acids 19-29 of the v6 domain; ref [55]; cited from earlier work", "from_the_text": "Affinity selection of phage displaying peptides typically involves passing the phage library over desired target molecules, such as protein biomarkers of cancer. In this study, we aimed to obtain peptides specific to the v6 region of human CD44v6, a putative aggressive cancer and/or CSC biomarker. However, the v6 region contains only 45 amino acids while the CD44v6-ECD consists of 290 amino acids. […] VFF18 is a murine mAb gene ..."}, "[2]": {"molecular_target": "CD44v6-Fc ECD (exons 1-5, v6 exon 10, exons 15-17) (Homo sapiens), P16070", "sequence (P16070 whole entry, looked up, change not shown, the tested form may be a part)": "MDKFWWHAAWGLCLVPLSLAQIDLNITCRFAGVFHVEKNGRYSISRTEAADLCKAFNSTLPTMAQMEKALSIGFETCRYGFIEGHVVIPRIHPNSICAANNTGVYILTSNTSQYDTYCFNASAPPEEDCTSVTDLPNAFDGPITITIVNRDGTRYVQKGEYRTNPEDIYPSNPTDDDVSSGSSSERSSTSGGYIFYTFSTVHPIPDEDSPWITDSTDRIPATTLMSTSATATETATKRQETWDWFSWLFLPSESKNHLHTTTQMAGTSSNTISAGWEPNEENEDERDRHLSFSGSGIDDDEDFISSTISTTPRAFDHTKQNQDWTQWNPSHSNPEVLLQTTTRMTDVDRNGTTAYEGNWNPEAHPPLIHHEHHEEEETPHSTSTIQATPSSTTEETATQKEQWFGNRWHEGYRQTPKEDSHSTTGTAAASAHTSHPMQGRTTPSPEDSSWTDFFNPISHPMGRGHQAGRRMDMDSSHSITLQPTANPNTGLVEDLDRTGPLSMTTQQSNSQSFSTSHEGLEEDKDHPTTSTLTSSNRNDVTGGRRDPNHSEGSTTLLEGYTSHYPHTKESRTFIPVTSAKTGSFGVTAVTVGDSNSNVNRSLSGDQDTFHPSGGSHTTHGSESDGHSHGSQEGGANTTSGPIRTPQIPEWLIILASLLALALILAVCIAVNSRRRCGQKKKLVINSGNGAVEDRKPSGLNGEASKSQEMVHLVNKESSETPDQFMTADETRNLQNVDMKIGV", "test": "ELISA", "details": "N-terminal biotin on peptide, Fc fusion of CD44v6"}}, "note": "Read-outs that look alike come from different tables or passages of the source. Ends that are not written are not given here. Peptide text beside a SMILES is read from it. * marks the point of attachment. Biotin = O=C1N[C@H]2[C@H](CS[C@H]2CCCCC(=O)*)N1"}
{"molecule": "VSVWFVTANFPPFTD [scr2]", "values": [{"measurement": "binding to recombinant CD44v6-Fc (in words)", "setting": "recombinant CD44v6-Fc", "value": "negligible binding to CD44v6-Fc"}]}
{"molecule": "VTPVFSFATPNFVDW [scr1]", "values": [{"measurement": "binding to recombinant CD44v6-Fc (in words)", "setting": "recombinant CD44v6-Fc", "value": "negligible binding to CD44v6-Fc"}, {"measurement": "staining of PCa tissue by scrambled peptide (in words)", "setting": "CD44v6", "value": "no staining"}]}
{"molecule": "KEQWFGNRWHEGYR [selection target]", "values": [{"measurement": "inhibition of Met signaling (in words)", "setting": "Met signaling", "value": "inhibited Met signaling"}]}
{"molecule": "Biotin-GSG-WSNKGYD", "values": [{"measurement": "binding of synthetic peptides to v6 region peptide compared to control peptide (in words)", "setting": "[1]", "value": "increased binding to v6 region peptide compared to control peptide"}]}
{"molecule": "COc1cccc2c1C(=O)c1c(O)c3c(c(O)c1C2=O)C[C@@](O)(C(=O)CO)C[C@@H]3O[C@H]1C[C@H](N)[C@H](O)[C@H](C)O1", "note": "[DOX, doxorubicin]", "values": [{"measurement": "cell death among SORE6-GFP^- cells on DOX treatment (in words)", "setting": "SORE6-GFP^- cells", "value": "extensive cell death was observed among SORE6-GFP^- cells"}, {"measurement": "IC50", "setting": "PC3M cells", "value": 51.6, "unit": "nM"}]}
{"molecule": "Biotin-GSG-SAYDRPL (Biotin-GSGSAYDRPL)", "values": [{"measurement": "binding of synthetic peptides to v6 region peptide compared to control peptide (in words)", "setting": "[1]", "value": "increased binding to v6 region peptide compared to control peptide"}]}
{"molecule": "CC(C)[C@H](NC(=O)[C@H](Cc1ccccc1)NC(=O)[C@@H]1CCCN1C(=O)[C@@H](NC(=O)[C@H](CO)NC(=O)[C@@H](NC(=O)[C@@H](NC(=O)[C@H](Cc1ccccc1)NC(=O)[C@@H]1CCCN1C(=O)CNC(=O)[C@H](CO)NC(=O)CNC(=O)CCCC[C@@H]1SC[C@@H]2NC(=O)N[C@@H]21)[C@@H](C)O)C(C)C)C(C)C)C(=O)N[C@@H](Cc1c[nH]c2ccccc12)C(=O)N[C@@H](CC(N)=O)C(=O)N[C@@H](Cc1ccccc1)C(=O)N[C@H](C(=O)N[C@@H](C)C(=O)N[C@@H](CC(=O)O)C(=O)O)[C@@H](C)O", "note": "[PFT] (Biotin-GSGPFTVSVPFVWNFTAD-OH)", "values": [{"measurement": "Kd", "setting": "recombinant CD44v6-Fc; read-out: apparent affinity (equilibrium dissociation constant, Kd) to recombinant CD44v6", "value": "743 ± 153", "unit": "nM"}]}
{"molecule": "WFGNRWHEGYR [peptide corresponding to amino acids 19-29 of the v6 domain]", "values": [{"measurement": "epitope for VFF18 binding (in words)", "setting": "VFF18", "value": "minimum sequence required for high-affinity binding of VFF18"}]}
{"molecule": "CC(C)[C@H](NC(=O)[C@H](CO)NC(=O)[C@H](CO)NC(=O)[C@@H](NC(=O)[C@H](CCCNC(=N)N)NC(=O)[C@@H]1CCCN1C(=O)CNC(=O)[C@H](C)NC(=O)[C@H](Cc1c[nH]c2ccccc12)NC(=O)CNC(=O)[C@H](CO)NC(=O)CNC(=O)CCCC[C@@H]1SC[C@@H]2NC(=O)N[C@@H]21)C(C)C)C(=O)N[C@@H](Cc1ccc(O)cc1)C(=O)N[C@@H](Cc1ccc(O)cc1)C(=O)N[C@@H](C)C(=O)NCC(=O)N[C@@H](C)C(=O)N[C@@H](CCCNC(=N)N)C(=O)O", "note": "[WAG] (Biotin-GSGWAGPRVSSVYYAGAR-OH)", "values": [{"measurement": "Kd", "setting": "recombinant CD44v6-Fc; read-out: apparent affinity (Kd) to recombinant CD44v6", "value": "8670 ± 1850", "unit": "nM"}]}
{"molecule": "B1", "values": [{"measurement": "Kd", "setting": "[2]", "value": 743, "unit": "nM"}]}
{"molecule": "B2", "values": [{"measurement": "Kd", "setting": "[2]", "value": 8670, "unit": "nM"}]}
